In general, inhibition of growth refers to the share of the control response that was lost under treatment. By melting point is commonly meant the temperature of the solid-liquid transition.

Data set [1] relates to Glomerella lagenarium (Colletotrichum lagenarium). Put plainly: Glomerella lagenarium (Colletotrichum lagenarium) / liquid culture (anthracnose). The format is cell-based. The note with it: Colletotrichum orbiculare, growth inhibition photometrically 3-4 days after application, compared to untreated control. The procedure, abridged: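 Conidia from cryogenic storage suspended in potato dextrose broth and added to test compound in DMSO. Incubation at 24° C; growth inhibition read photometrically 3-4 days after application.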

Another data set concerns Gaeumannomyces graminis. Put plainly: Gaeumannomyces graminis / liquid culture (take-all of cereals). The format is cell-based. The following applies: growth inhibition photometrically 4-5 days after application, compared to untreated control. The procedure, abridged:
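Mycelial fragments from cryogenic storage in potato dextrose broth added to compound in DMSO, 96-well format. Incubated at 24° C; growth inhibition read photometrically 4-5 days after application.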

The test system of data set [2] is Monographella nivalis (Microdochium nivale). Put plainly: Monographella nivalis (Microdochium nivale) / liquid culture (foot rot cereals). The following applies: growth inhibition photometrically 4-5 days after application, compared to untreated control. The class given is cell-based. The procedure, abridged:
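Conidia from cryogenic storage were mixed into potato dextrose broth and added to wells holding test compound in DMSO. Incubation was at 24° C, with growth inhibition measured photometrically 4-5 days after application.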

Data set [3] concerns Mycosphaerella arachidis (Cercospora arachidicola). The data set can be described thus: Mycosphaerella arachidis (Cercospora arachidicola) / liquid culture (early leaf spot). The format is cell-based. The following applies: growth inhibition photometrically 4-5 days after application, compared to untreated control. How it is done: 9. Mycosphaerella arachidis (Cercospora arachidicola)/Liquid Culture (Early Leaf Spot) Conidia of the fungus from cryogenic storage are directly mixed into nutrient broth (PDB potato dextrose broth). After placing a (DMSO) solution of test compound into a microtiter plate (96-well format), the nutrient broth containing the fungal spores is added. The test plates are incubated at 24° C. and the inhibition of growth is determined photometrically 4-5 days after application.

Another data set has as its system Phytophthora infestans. The data set can be described thus: whole plant or invertebrate. The class given is in vivo. The note with it: in Solanum lycopersicum, foliar, read-out: control of Phytophthora infestans.
For a further data set, the system named is Pythium ultimum. Put plainly: Pythium ultimum / liquid culture (seedling damping off). The following applies: Globisporangium ultimum, growth inhibition photometrically 2-3 days after application, compared to untreated control. The class given is cell-based. The procedure, abridged:
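Fungal mycelia fragments and oospores from fresh liquid culture mixed into potato dextrose broth and added to DMSO solutions of test compound. Incubated at 24° C.; growth inhibition read photometrically 2-3 days after application.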

The test system of data set [4] is Thanatephorus cucumeris (Rhizoctonia solani). Put plainly: Thanatephorus cucumeris (Rhizoctonia solani) / liquid culture (foot rot, damping-off). The format is cell-based. The following applies: growth inhibition photometrically 3-4 days after application, compared to untreated control. How it is done:
16. Thanatephorus cucumeris (Rhizoctonia solani)/Liquid Culture (Foot Rot, Damping-Off) Mycelia fragments of a newly grown liquid culture of the fungus are directly mixed into nutrient broth (PDB potato dextrose broth). After placing a (DMSO) solution of the test compounds into a microtiter plate (96-well format), the nutrient broth containing the fungal material is added. The test plates are incubated at 24° C. and the inhibition of growth is determined photometrically 3-4 days after application.

The subject of the next data set is Sclerotinia sclerotiorum. The data set can be described thus: Sclerotinia sclerotiorum / liquid culture (cottony rot). The class given is cell-based. The note with it: growth inhibition photometrically 3-4 days after application, compared to untreated control. The protocol: 17. Sclerotinia sclerotiorum/Liquid Culture (Cottony Rot) Mycelia fragments of a newly grown liquid culture of the fungus are directly mixed into nutrient broth (PDB potato dextrose broth). After placing a (DMSO) solution of test compound into a microtiter plate (96-well format) the nutrient broth containing the fungal material is added. The test plates are incubated at 24° C. and the inhibition of growth is determined photometrically 3-4 days after application.

The test system of data set [5] is Mycosphaerella graminicola (Septoria tritici). Put plainly: Mycosphaerella graminicola (Septoria tritici) / liquid culture (Septoria blotch). The format is cell-based. The following applies: Zymoseptoria tritici, growth inhibition photometrically 4-5 days after application, compared to untreated control.
For data set [6], the system named is Puccinia recondite f. sp. tritici. Put plainly: Puccinia recondite f. sp. tritici / wheat / leaf disc preventative (brown rust). The note with it: foliar, wheat leaf segments, inoculated 1 day after application, compared to untreated control. The format is in vivo. The protocol:
13. Puccinia recondite f. Sp. Tritici/Wheat/Leaf Disc Preventative (Brown Rust) Wheat leaf segments cv. Kanzler are placed on agar in multiwell plates (24-well format) and sprayed with the formulated test compound diluted in water. The leaf disks are inoculated with a spore suspension of the fungus 1 day after application. The inoculated leaf segments are incubated at 19° C. and 75% rh under a light regime of 12 h light/12 h darkness in a climate cabinet and the activity of a compound is assessed as percent disease control compared to untreated when an appropriate level of disease damage appears in untreated check leaf segments (7-9 days after application).

Data set [7] has as its system Blumeria graminis f. sp. tritici (Erysiphe graminis f. sp. tritici). The data set can be described thus: Blumeria graminis f. sp. tritici / wheat / leaf disc preventative (powdery mildew on wheat). The class given is in vivo. The note with it: 200 ppm, wheat leaf segments, inoculated 1 day after application, compared to untreated control. How it is done:
4. Blumeria Graminis f. Sp. Tritici (Erysiphe graminis f. Sp. Tritici)/Wheat/Leaf Disc Preventative (Powdery Mildew on Wheat)
Wheat leaf segments cv. Kanzler are placed on agar in a multiwell plate (24-well format) and sprayed with the formulated test compound diluted in water. The leaf disks are inoculated by shaking powdery mildew infected plants above the test plates 1 day after application. The inoculated leaf disks are incubated at 20° C. and 60% rh under a light regime of 24 h darkness followed by 12 h light/12 h darkness in a climate chamber and the activity of a compound is assessed as percent disease control compared to untreated when an appropriate level of disease damage appears on untreated check leaf segments (6-8 days after application).

For another data set, the system named is Pyrenophora teres. Put plainly: Pyrenophora teres / barley / leaf disc preventative (net blotch). The following applies: 200 ppm, barley leaf segments, inoculated 2 days after application, compared to untreated control. The class given is in vivo. The protocol:
14. Pyrenophora teres/Barley/Leaf Disc Preventative (Net Blotch) Barley leaf segments cv. Hasso are placed on agar in a multiwell plate (24-well format) and sprayed with the formulated test compound diluted in water. The leaf segments are inoculated with a spore suspension of the fungus 2 days after application. The inoculated leaf segments are incubated at 20° C. and 65% rh under a light regime of 12 h light/12 h darkness in a climate cabinet and the activity of a compound is assessed as disease control compared to untreated when an appropriate level of disease damage appears in untreated check leaf segments (5-7 days after application).

Turning to `COC(=O)c1ccc2c(c1OC)B(O)OC2` [Compound 1, methyl 1-hydroxy-7-methoxy-3H-2,1-benzoxaborole-6-carboxylate], the inhibition of growth at 20 ppm (in data set [1]; in the data set on Gaeumannomyces graminis; in data set [2]; in data set [3]; in the data set with Pythium ultimum; in [4]) was not below 80% in each case. For the same compound, the inhibition of growth at 20 ppm (in the data set with Sclerotinia sclerotiorum; in [5]) was not below 80% in each case. Moreover, the pest or weed control at 200 ppm in the data set with Phytophthora infestans is not below 80%.
In the case of `COC(=O)c1ccc2c(c1O)B(O)OC2` [Compound 2, methyl 1,7-dihydroxy-3H-2,1-benzoxaborole-6-carboxylate], the melting point is 146 to 148 °C. Besides, the inhibition of growth at 20 ppm in data set [1] was not below 80%. For the same compound, the inhibition of growth at 20 ppm in the data set on Gaeumannomyces graminis was not below 80%. Moreover, the inhibition of growth at 20 ppm in [2] is not below 80%. The compound also came in with an inhibition of growth at 20 ppm in data set [3] not below 80%. Also, in the data set on Phytophthora infestans, the pest or weed control at 200 ppm is not below 80%. The compound also yielded an inhibition of growth at 20 ppm in the data set on Pythium ultimum not below 80%. The inhibition of growth at 20 ppm in data set [4] was not below 80%. For the same compound, the inhibition of growth at 20 ppm with Sclerotinia sclerotiorum is not below 80%. Besides, the inhibition of growth at 20 ppm in data set [5] was not below 80%.
On to `COC(=O)c1ccc2c(c1Cl)B(O)OC2` [Compound 3, methyl 7-chloro-1-hydroxy-3H-2,1-benzoxaborole-6-carboxylate], for which the inhibition of growth at 20 ppm (in [1]; in data set [2]; in [3]; in the data set with Pythium ultimum; in [4]; in the data set with Sclerotinia sclerotiorum) was not below 80% in each case. The compound further had an inhibition of growth at 20 ppm in [5] not below 80%. In addition, the pest or weed control at 200 ppm (in the data set on Phytophthora infestans; in data set [6]) was not below 80% each time.
For `CNC(=O)c1ccc2c(c1OC)B(O)OC2` [Compound 8, 1-hydroxy-7-methoxy-N-methyl-3H-2,1-benzoxaborole-6-carboxamide], the inhibition of growth at 20 ppm (in [3]; in the data set with Pythium ultimum) was not below 80% in each case. In addition, the pest or weed control at 200 ppm in [6] is not below 80%.
For `CCOC(=O)c1ccc2c(c1Cl)B(O)OC2` [Compound 9, ethyl 7-chloro-1-hydroxy-3H-2,1-benzoxaborole-6-carboxylate], the melting point lay within 132 to 133 °C. For the same compound, the inhibition of growth at 20 ppm in data set [1] was not below 80%. Besides, the inhibition of growth at 20 ppm in the data set on Gaeumannomyces graminis is not below 80%. Further, in data set [2], the inhibition of growth at 20 ppm was not below 80%. The pest or weed control at 200 ppm in the data set with Phytophthora infestans was not below 80%. In addition, the pest or weed control at 200 ppm in [6] is not below 80%. In the data set on Pythium ultimum, this compound came in with an inhibition of growth at 20 ppm not below 80%. Moreover, the inhibition of growth at 20 ppm in data set [4] was not below 80%. Besides, in [5], the inhibition of growth at 20 ppm is not below 80%.
In the case of `COc1c(C(=O)OCC(F)F)ccc2c1B(O)OC2` [Compound 12, 2,2-difluoroethyl 1-hydroxy-7-methoxy-3H-2,1-benzoxaborole-6-carboxylate], the inhibition of growth at 20 ppm (in data set [1]; in the data set on Gaeumannomyces graminis; in data set [2]; with Pythium ultimum; in [5]) was not below 80% in each case. Moreover, the pest or weed control at 200 ppm in the data set on Phytophthora infestans is not below 80%.
In the case of `COc1c(C(=O)NC(C)c2ncc(F)cc2F)ccc2c1B(O)OC2` (stereo not drawn) [Compound 20, N-[1-(3,5-difluoro-2-pyridyl)ethyl]-1-hydroxy-7-methoxy-3H-2,1-benzoxaborole-6-carboxamide], in [7], the “control of Blumeria graminis f. sp. tritici” value is given as “at least 80%”.
As for `CCc1ccc(NC(=O)c2ccc3c(c2OC)B(O)OC3)cc1` [Compound 29, N-(4-ethylphenyl)-1-hydroxy-7-methoxy-3H-2,1-benzoxaborole-6-carboxamide], the inhibition of growth at 20 ppm (in data set [1]; in data set [2]; with Pythium ultimum; in data set [5]) was not below 80% throughout. In addition, the “control of Pyrenophora teres” value in the data set with Pyrenophora teres is on record as “at least 80%”.
Regarding `COc1c(C(=O)OCn2cccn2)ccc2c1B(O)OC2` [Compound 86, pyrazol-1-ylmethyl 1-hydroxy-7-methoxy-3H-2,1-benzoxaborole-6-carboxylate], the inhibition of growth at 20 ppm (in [1]; in the data set on Gaeumannomyces graminis; in data set [2]; in data set [3]; in the data set with Pythium ultimum; in data set [4]) was not below 80% each time. For the same compound, the inhibition of growth at 20 ppm (in the data set with Sclerotinia sclerotiorum; in data set [5]) was not below 80% in each case. The pest or weed control at 200 ppm with Phytophthora infestans was not below 80%.
As to `COc1c(C(=O)OCn2nc(C)cc2C)ccc2c1B(O)OC2` [Compound 103, (3,5-dimethylpyrazol-1-yl)methyl 1-hydroxy-7-methoxy-3H-2,1-benzoxaborole-6-carboxylate], the inhibition of growth at 20 ppm with Gaeumannomyces graminis and with Pythium ultimum was not below 80% in each case. In addition, in the data set on Phytophthora infestans, the pest or weed control at 200 ppm is not below 80%.
Take `COc1c(C(=O)OCCOC(C)C)ccc2c1B(O)OC2` [Compound 109, 2-isopropoxyethyl 1-hydroxy-7-methoxy-3H-2,1-benzoxaborole-6-carboxylate]: the inhibition of growth at 20 ppm (in the data set on Gaeumannomyces graminis; in data set [2]; in the data set with Pythium ultimum) was not below 80% throughout. Further, the pest or weed control at 200 ppm in the data set with Phytophthora infestans was not below 80%.
Take `COc1c(C(=O)O)ccc2c1B(O)OC2` [Compound 131, 1-hydroxy-7-methoxy-3H-2,1-benzoxaborole-6-carboxylic acid]: the melting point was 181 to 182.4 °C.

The values above are taken from patent US20180244699A1, “1-HYDROXY-3H-2,1-BENZOXABOROLE DERIVATIVES AND THEIR USE AS MICROBIOCIDES” (Syngenta Participations AG, priority 2015, published 2018).
